Measurements taken from patent US9801387B2, “Compositions comprising a biological control agent and an insecticide” (Bayer CropScience AG, priority 2012, dated 2017).

Tests used:
Type in all cases: in vivo
Tetranychus urticae = Tetranychus urticae - spray test, OP-resistant; conditions: mortality, French beans sprayed
Experimental: (§1) For all examples the efficiencies of the compositions comprising at least one BCA and at least one specific insecticide has been determined by the “Colby-formula”: The expected efficacy of a given combination of two compounds is calculated as follows (see Colby, S. R., “Calculating Synergistic and antagonistic Responses of Herbicide Combinations”, Weeds 15, pp. 20-22, 1967): • If • X is the efficacy expressed in % mortality of the untreated control for test compound A at a concentration of m ppm respectively m g/ha, • Y is the efficacy expressed in % mortality of the untreated control for test compound B at a concentration of n ppm respectively n g/ha, • E is the efficacy expressed in % mortality of the untreated control using the mixture of A and B at m and n ppm respectively m and n g/ha, then is E=X+Y−(X×Y/100)
(§2) If the observed insecticidal efficacy of the combination is higher than the one calculated as “E”, then the combination of the two compounds is more than additive, i.e., there is a synergistic effect.
Tetranychus urticase—Spray Test, OP-resistant […]
(§3) After the specified period of time, mortality in % is determined. […] The mortality values determined thus are recalculated using the Colby-formula (see above).

Myzus persicae = Myzus persicae - spray test (MYZUPE); conditions: mortality
Experimental: as §1, §2
Myzus persicae—Spray Test (MYZUPE) […]
as §3

Phaedon cochleariae = Phaedon cochleariae - spray test; conditions: mortality of larvae, 100 g ai/ha
Experimental: as §1, §2
Phaedan Cochleariae—Spray Test […]
as §3

| SMILES | Efficacy in % after 6^d (Tetranychus urticae; 6 d, 20 g ai/ha) | Efficacy in % after 1^d (Myzus persicae; Chinese cabbage leaf-disks sprayed, 1 d, 4 g/ha) | Efficacy in % after 2^d (Tetranychus urticae; 2 d, 100 g ai/ha) | Efficacy in % after 6^d (Phaedon cochleariae) | Efficacy in % after 6^d (Myzus persicae; 6 d, 100 g/ha) |
| --- | --- | --- | --- | --- | --- |
| O=C1C=C(N(Cc2ccc(Cl)nc2)CC(F)F)CO1 [Flupyradifurone (I262), Flupyradifurone, reference compound] | 0% | 0% | – | – | – |
| Cc1cc(F)c(-n2nc(C(F)(F)F)nc2N)cc1[S+]([O-])CC(F)(F)F (centres unmarked) [I277, 1-{2-fluoro-4-methyl-5-[(2,2,2-trifluorethyl)sulfinyl]phenyl}-3-(trifluoromethyl)-1H-1,2,4-triazol-5-amine] | – | – | 0% | 0% | 0% |
